This is an account of results in US8524718B2, “Heteroaromatic derivatives and their use as positive allosteric modulators of metabotropic glutamate receptors” (Addex Pharma S.A., priority 2007, dated 2013).

Molecules are shown by their SMILES.

Take `Cc1sc(Nc2cccc(F)n2)nc1-c1cnn(C(N)=O)c1`: the melting point is 230 °C (dec.).
For `Cc1n[nH]cc1-c1nc(Nc2ccccn2)sc1C` [Compound 1-15, 5-Methyl-4-(3-methyl-1H-pyrazol-4-yl)-N-(pyridin-2-yl)thiazol-2-amine], the melting point turned out to be 218 °C.
`Cc1n[nH]cc1-c1csc(Nc2cc(F)ccc2F)n1` [Compound 1-17, N-(2,5-Difluorophenyl)-4-(3-methyl-1H-pyrazol-4-yl)thiazol-2-amine] yielded a melting point of 196 to 199 °C.
For `Cc1ccnc(Nc2nc(-c3cn[nH]c3)c(C)s2)c1` [Compound 1-19, 5-Methyl-N-(4-methylpyridin-2-yl)-4-(1H-pyrazol-4-yl)thiazol-2-amine], the melting point amounted to 274 °C.
Consider `Cc1sc(Nc2ncc(F)cc2F)nc1-c1cn[nH]c1` [Compound 1-20, N-(3,5-Difluoropyridin-2-yl)-5-methyl-4-(1H-pyrazol-4-yl)thiazol-2-amine], for which the melting point is over 300 °C.
`Cc1ccnc(Nc2nc(-c3c[nH]nc3C)cs2)c1` [Compound 1-21, 4-(3-Methyl-1H-pyrazol-4-yl)-N-(4-methylpyridin-2-yl)thiazol-2-amine]: the melting point was 276 to 278 °C.
Consider `CCc1sc(Nc2ccccn2)nc1-c1cn[nH]c1` [Compound 1-22, 5-Ethyl-4-(1H-pyrazol-4-yl)-N-(pyridin-2-yl)thiazol-2-amine], for which the melting point is 243 to 246 °C.
Take `Cc1cccc(Nc2nc(-c3c[nH]nc3C)cs2)n1` [Compound 1-23, 4-(3-Methyl-1H-pyrazol-4-yl)-N-(6-methylpyridin-2-yl)thiazol-2-amine]: the melting point was 295 °C (dec.).
Compound `Cc1sc(Nc2ccc(F)cn2)nc1-c1cn[nH]c1` [Compound 1-24, N-(5-Fluoropyridin-2-yl)-5-methyl-4-(1H-pyrazol-4-yl)thiazol-2-amine] came in with a melting point of 320 °C.
The compound `Cc1sc(Nc2ccccn2)nc1-c1cnn(C(=O)C(C)C)c1` [Compound 1-26, 2-Methyl-1-(4-(5-methyl-2-(pyridin-2-ylamino)thiazol-4-yl)-1H-pyrazol-1-yl)propan-1-one] registered a melting point of 168 °C.
As to `Cc1sc(Nc2ccccn2)nc1-c1cnn(C(=O)C2CCCCC2)c1` [Compound 1-28, Cyclohexyl(4-(5-methyl-2-(pyridin-2-ylamino)thiazol-4-yl)-1H-pyrazol-1-yl)methanone], the melting point lay in the range of 140 to 144 °C.
`Cc1sc(NC2CCCCC2)nc1-c1cn[nH]c1` [Compound 1-29, N-Cyclohexyl-5-methyl-4-(1H-pyrazol-4-yl)thiazol-2-amine] yielded a melting point of 205 to 207 °C.
The result for `Cc1cccc(Nc2nc(-c3cnn(C(=O)C(C)C)c3)c(C)s2)n1` [Compound 1-30, 2-Methyl-1-(4-(5-methyl-2-(6-methylpyridin-2-ylamino)thiazol-4-yl)-1H-pyrazol-1-yl)propan-1-one] reads 159 to 160 °C.
Turning to `Cc1sc(Nc2ccccn2)nc1-c1cnn(C(=O)N2CCCCC2)c1` [Compound 1-34, (4-(5-Methyl-2-(pyridin-2-ylamino)thiazol-4-yl)-1H-pyrazol-1-yl)(piperidin-1-yl)methanone], the melting point lay in the range of 137 to 138 °C.
Turning to `c1ccc(Nc2nc(-c3cn[nH]c3)ns2)nc1` [Compound 1-35, 3-(1H-Pyrazol-4-yl)-N-(pyridin-2-yl)-1,2,4-thiadiazol-5-amine], the melting point was 300 °C (dec.).
Consider `CC(C)C(=O)n1cc(-c2nsc(Nc3ccccn3)n2)cn1` [Compound 1-36, 2-Methyl-1-(4-(5-(pyridin-2-ylamino)-1,2,4-thiadiazol-3-yl)-1H-pyrazol-1-yl)propan-1-one], for which the melting point was 248 to 254 °C.
On to `Cc1sc(NC2CCCC2)nc1-c1cn[nH]c1` [Compound 1-37, N-Cyclopentyl-5-methyl-4-(1H-pyrazol-4-yl)thiazol-2-amine], for which the melting point stood at 197 °C.
Consider `Cc1cccc(Nc2nc(-c3cn[nH]c3)ns2)n1` [Compound 1-38, N-(6-Methylpyridin-2-yl)-3-(1H-pyrazol-4-yl)-1,2,4-thiadiazol-5-amine], for which the melting point is 276 °C.
Regarding `Cc1sc(Nc2cnccn2)nc1-c1cn[nH]c1` [Compound 1-39, 5-Methyl-N-(pyrazin-2-yl)-4-(1H-pyrazol-4-yl)thiazol-2-amine], the melting point was found to be 252 °C.
With `Cc1cccc(Nc2nc(-c3c[nH]nc3C)ns2)n1` [Compound 1-40, 3-(3-Methyl-1H-pyrazol-4-yl)-N-(6-methylpyridin-2-yl)-1,2,4-thiadiazol-5-amine] the figure was over 300 °C.
With `Cc1n[nH]cc1-c1nsc(Nc2cccc(Cl)n2)n1` [Compound 1-41, N-(6-Chloropyridin-2-yl)-3-(3-methyl-1H-pyrazol-4-yl)-1,2,4-thiadiazol-5-amine] the figure was 285 °C (dec.); with `Clc1cccc(Nc2nc(-c3cn[nH]c3)ns2)n1` [Compound 1-42, N-(6-Chloropyridin-2-yl)-3-(1H-pyrazol-4-yl)-1,2,4-thiadiazol-5-amine], 317 to 319 °C.
With `Cc1n[nH]cc1-c1nsc(Nc2ncc(F)cc2F)n1` [Compound 1-44, N-(3,5-Difluoropyridin-2-yl)-3-(3-methyl-1H-pyrazol-4-yl)-1,2,4-thiadiazol-5-amine] the figure was over 300 °C.
Compound `Cc1sc(Nc2ccccn2)nc1-c1cnn(S(C)(=O)=O)c1` [Compound 1-45, 5-Methyl-4-(1-(methylsulfonyl)-1H-pyrazol-4-yl)-N-(pyridin-2-yl)thiazol-2-amine] returned a melting point of 193 °C.
With `CCc1cccc(Nc2nc(-c3cn[nH]c3)c(C)s2)n1` [Compound 1-48, N-(6-Ethylpyridin-2-yl)-5-methyl-4-(1H-pyrazol-4-yl)thiazol-2-amine], the melting point is 276 to 278 °C.
In turn, `Cc1sc(Nc2ccccn2)nc1-c1cnn(C(=O)NC(C)C)c1` [Compound 1-50, N-Isopropyl-4-(5-methyl-2-(pyridin-2-ylamino)thiazol-4-yl)-1H-pyrazole-1-carboxamide] showed a melting point of 297 to 298 °C.
On to `Cc1cccc(Nc2nc(-c3cn[nH]c3)c(Cl)s2)n1` [Compound 1-52, 5-Chloro-N-(6-methylpyridin-2-yl)-4-(1H-pyrazol-4-yl)thiazol-2-amine], for which the melting point lay in the range of 278 to 282 °C.
`OCc1sc(Nc2ccccn2)nc1-c1cn[nH]c1` [Compound 1-57, (4-(1H-Pyrazol-4-yl)-2-(pyridin-2-ylamino)thiazol-5-yl)methanol]: the melting point was 250 °C (dec.).
Regarding `Cc1sc(Nc2ccccn2)nc1-c1cnn(C(=O)NC2CC2)c1` [Compound 1-59, N-Cyclopropyl-4-(5-methyl-2-(pyridin-2-ylamino)thiazol-4-yl)-1H-pyrazole-1-carboxamide], the melting point was 270 °C (dec.).
`Fc1ccc(F)c(Nc2cccc(-c3cn[nH]c3)n2)c1` [Compound 2-1, N-(2,5-Difluorophenyl)-6-(1H-pyrazol-4-yl)pyridin-2-amine]: the melting point lay within 198 to 199 °C.

The melting point is the temperature, or range, at which the solid turns liquid.
